# From patent US5807535A, “Metal complexes of hydroxyaryl containing aminocarboxylic acid chelating agents” (Australian Nuclear Science & Technology Organisation, priority 1992, dated 1998)
# Read-outs that look alike come from different tables or passages of the source.
# Experiment: Biodistribution of 99mTc complexes in rats
# Assay type: in vivo, Australian Albino Wistar Rats
# Details: for tissue uptake at 0.5 min / tissue uptake at 1 min / tissue uptake at 0.05 h / tissue uptake at 5 min / tissue uptake at 10 min: rat; for tissue uptake at 0.5 min: 30 sec
# Protocol: A typical method of radiolabelling of the chelator was achieved by dissolving the chelator in a basic solution of saline. The pH was then adjusted to approx. 6 with HCl. Excess stannous chloride was added to the resultant solution followed by one equivalent volume of sodium ^99m TcO4 (10-50 mCi/ml). Final concentration of the chelator was approx. 1 mg/ml. The efficacy of labelling was determined by ITLC-SG. For each product only one main radiochemical species was observed. Each complex was diluted to 15 μCi/100 μl with saline. […] (See FIGS. 1A and 1B).
# Selected data from biodistribution results of technetium-99m complexes of No. 1, No. 2 and No 4 in the liver, kidney and blood at 3 minutes is tabulated below.
# [1] = blood, rats, read-out: biodistribution blood
# [2] = bone, rats, read-out: biodistribution bone
# [3] = brain, rats, read-out: biodistribution brain
# [4] = eyes, rats, read-out: biodistribution eyes
# [5] = heart, rats, read-out: biodistribution heart
# [6] = kidneys, rats, read-out: biodistribution kidneys
# [7] = liver, rats, read-out: biodistribution liver
# [8] = lungs, rats, read-out: biodistribution lungs
# [9] = muscle, rats, read-out: biodistribution muscle
# [10] = pancreas, rats, read-out: biodistribution pancreas
# [11] = skin, rats, read-out: biodistribution skin
# [12] = spleen, rats, read-out: biodistribution spleen
# [13] = stomach, rats, read-out: biodistribution stomach
# [14] = tail, rats, read-out: biodistribution tail
# [15] = thymus, rats, read-out: biodistribution thymus
# [16] = thyroid, rats, read-out: biodistribution thyroid
# [17] = total git, rats, read-out: biodistribution tot GIT
structure (smiles),measurement,setting,value
O=C(O)CN(CCN(CC(=O)O)CC(=O)Nc1ccc(Cl)cc1O)CC(=O)Nc1ccc(Cl)cc1O [Compound 2],hepatobiliary passage,Tables 2 and 4,specifically traverse the hepatobiliary system
same,tissue uptake at 0.5 min,[1],2.79 %ID/g
same,tissue uptake at 1 min,[1],2.77 %ID/g
same,tissue uptake at 0.05 h,"blood, rats, 3 minutes, selected data, read-out: Blood",1.32 %ID/g
same,tissue uptake at 5 min,[1],0.94 %ID/g
same,tissue uptake at 10 min,[1],0.77 %ID/g
same,tissue uptake at 0.5 min,[2],0.34 %ID/g
same,tissue uptake at 1 min,[2],0.37 %ID/g
same,tissue uptake at 0.05 h,"bone, rats, 3 min, read-out: biodistribution bone",0.25 %ID/g
same,tissue uptake at 5 min,[2],0.19 %ID/g
same,tissue uptake at 10 min,[2],0.15 %ID/g
same,tissue uptake at 0.5 min,[3],0.14 %ID/g
same,tissue uptake at 1 min,[3],0.09 %ID/g
same,tissue uptake at 0.05 h,"brain, rats, 3 min, read-out: biodistribution brain",0.06 %ID/g
same,tissue uptake at 5 min,[3],0.04 %ID/g
same,tissue uptake at 10 min,[3],0.03 %ID/g
same,tissue uptake at 0.5 min,[4],0.11 %ID/g
same,tissue uptake at 1 min,[4],0.15 %ID/g
same,tissue uptake at 0.05 h,"eyes, rats, 3 min, read-out: biodistribution eyes",0.12 %ID/g
same,tissue uptake at 5 min,[4],0.1 %ID/g
same,tissue uptake at 10 min,[4],0.1 %ID/g
same,tissue uptake at 0.5 min,[5],0.87 %ID/g
same,tissue uptake at 1 min,[5],0.93 %ID/g
same,tissue uptake at 0.05 h,"heart, rats, 3 min, read-out: biodistribution heart",0.46 %ID/g
same,tissue uptake at 5 min,[5],0.36 %ID/g
same,tissue uptake at 10 min,[5],0.28 %ID/g
same,tissue uptake at 0.05 h,"kidney, rats, 3 minutes, selected data, read-out: Kidney",8.9 %ID/g
same,tissue uptake at 0.5 min,[6],6.42 %ID/g
same,tissue uptake at 1 min,[6],8.37 %ID/g
same,tissue uptake at 0.05 h,"kidneys, rats, 3 min, read-out: biodistribution kidneys",8.9 %ID/g
same,tissue uptake at 5 min,[6],7.26 %ID/g
same,tissue uptake at 10 min,[6],3.35 %ID/g
same,tissue uptake at 0.5 min,[7],4.61 %ID/g
same,tissue uptake at 1 min,[7],6.28 %ID/g
same,tissue uptake at 0.05 h,"liver, rats, 3 minutes, selected data, read-out: Liver",5.93 %ID/g
same,tissue uptake at 5 min,[7],3.93 %ID/g
same,tissue uptake at 10 min,[7],1.89 %ID/g
same,tissue uptake at 0.5 min,[8],1.2 %ID/g
same,tissue uptake at 1 min,[8],1.17 %ID/g
same,tissue uptake at 0.05 h,"lungs, rats, 3 min, read-out: biodistribution lungs",0.79 %ID/g
same,tissue uptake at 5 min,[8],0.59 %ID/g
same,tissue uptake at 10 min,[8],0.48 %ID/g
same,tissue uptake at 0.5 min,[9],0.22 %ID/g
same,tissue uptake at 1 min,[9],0.24 %ID/g
same,tissue uptake at 0.05 h,"muscle, rats, 3 min, read-out: biodistribution muscle",0.2 %ID/g
same,tissue uptake at 5 min,[9],0.16 %ID/g
same,tissue uptake at 10 min,[9],0.11 %ID/g
same,tissue uptake at 0.5 min,[10],0.49 %ID/g
same,tissue uptake at 1 min,[10],0.66 %ID/g
same,tissue uptake at 0.05 h,"pancreas, rats, 3 min, read-out: biodistribution pancreas",0.44 %ID/g
same,tissue uptake at 5 min,[10],0.52 %ID/g
same,tissue uptake at 10 min,[10],0.27 %ID/g
same,tissue uptake at 0.5 min,[11],0.29 %ID/g
same,tissue uptake at 1 min,[11],0.45 %ID/g
same,tissue uptake at 0.05 h,"skin, rats, 3 min, read-out: biodistribution skin",0.42 %ID/g
same,tissue uptake at 5 min,[11],0.35 %ID/g
same,tissue uptake at 10 min,[11],0.33 %ID/g
same,tissue uptake at 0.5 min,[12],0.62 %ID/g
same,tissue uptake at 1 min,[12],0.58 %ID/g
same,tissue uptake at 0.05 h,"spleen, rats, 3 min, read-out: biodistribution spleen",0.33 %ID/g
same,tissue uptake at 5 min,[12],0.25 %ID/g
same,tissue uptake at 10 min,[12],0.16 %ID/g
same,tissue uptake at 0.5 min,[13],0.41 %ID/g
same,tissue uptake at 1 min,[13],0.68 %ID/g
same,tissue uptake at 0.05 h,"stomach, rats, 3 min, read-out: biodistribution stomach",2.08 %ID/g
same,tissue uptake at 5 min,[13],0.98 %ID/g
same,tissue uptake at 10 min,[13],0.9 %ID/g
same,tissue uptake at 0.5 min,[14],0.81 %ID/g
same,tissue uptake at 1 min,[14],0.66 %ID/g
same,tissue uptake at 0.05 h,"tail, rats, 3 min, read-out: biodistribution tail",0.64 %ID/g
same,tissue uptake at 5 min,[14],1.16 %ID/g
same,tissue uptake at 10 min,[14],0.55 %ID/g
same,tissue uptake at 0.5 min,[15],0.39 %ID/g
same,tissue uptake at 1 min,[15],0.37 %ID/g
same,tissue uptake at 0.05 h,"thymus, rats, 3 min, read-out: biodistribution thymus",0.27 %ID/g
same,tissue uptake at 5 min,[15],0.17 %ID/g
same,tissue uptake at 10 min,[15],0.15 %ID/g
same,tissue uptake at 0.5 min,[16],1.41 %ID/g
same,tissue uptake at 1 min,[16],1.71 %ID/g
same,tissue uptake at 0.05 h,"thyroid, rats, 3 min, read-out: biodistribution thyroid",0.81 %ID/g
same,tissue uptake at 5 min,[16],0.58 %ID/g
same,tissue uptake at 10 min,[16],0.44 %ID/g
same,tissue uptake at 0.5 min,[17],0.48 %ID/g
same,tissue uptake at 1 min,[17],0.58 %ID/g
same,tissue uptake at 0.05 h,"total git, rats, 3 min, read-out: biodistribution tot GIT",1.56 %ID/g
same,tissue uptake at 5 min,[17],2.27 %ID/g
same,tissue uptake at 10 min,[17],3.18 %ID/g
same,liver versus kidney uptake,rats,preference for the liver uptake as opposed to the kidney
same,biodistribution blood,"rats, 3 min",1.32 % Injected dose per gram
same,biodistribution liver,"rats, 3 min",5.93 % Injected dose per gram
